Laboratory results: patent publication US20240140895A1, “NOVEL AROMATIC MOLECULES” (XENIOPRO GmbH, priority 2018, published 2024)

Test system: HL-60 cells (human acute myeloid leukemia cells)
Assay: Proliferation assay (alamarBlue) with HL-60 cells
Type: cell-based
Source text: The antiproliferative activities of compounds falling under formula (Ia), (Tb) and (Ic), respectively, were investigated on cells or cell lines originating from a disorder of the haematopoietic system, including the myeloid cell compartment and the lymphoid cell compartment (T-cells and B-cells), the neuroendocrine system, the cervix, the breast, the ovaries, the lung, the gastrointestinal tract, and the mucosal epithelium, as well as from the skin epithelium and from the muscle. To this end, HL-60 cells, NB-4 cells, HH cells, RPMI-8402 cells, TANOUE cells, TT cells, HeLa cells, MDA-MB-231 cells, FU-OV-1 cells, LOU-NH91 cells, 23132/87 cells, CAL-27 cells, BHY cells, SCC-25 cells, A-431 cells, human primary epidermal keratinocytes (HPEK), and C2C12 cells were seeded into 96-well plates suitable for fluorescence assays (CORNING #3598) at following initial cell numbers: 1000 cells per well for HL-60; 1000 cells per well for NB-4; 5000 cells per well for HH; 5000 cells per well for RPMI-8402; 1500 cells per well for TANOUE; 9000 cells per well for TT; 2000 cells per well for HeLa; 3000 cells per well for MDA-MB-231; 3000 cells per well for FU-OV-1; 4000 cells per well for LOU-NH91; 2000 cells per well for 23132/87; 2000 cells per well for CAL-27; 1500 cells per well for BHY; 1500 cells per well for SCC-25; 700 cells per well for A-431; 1000 cells per well for HPEK; 500 cells per well for C2-C12. The cells were treated with compounds at indicated final concentrations (diluted from the 1000× stock-solutions in DMSO to a final DMSO concentration of 0.1% v/v in H2O (Water For Injection, WFI, Fisherscientific #10378939)) or with the empty carrier DMSO at 0.1% v/v as control for 5 days. At day 5 after starting the treatments the cells were subjected to the alamarBlue® Proliferation Assay (Bio-Rad Serotec GmbH, BUF012B) according to the protocol of the manufacturer. The readout was taken with a multi-well plate-reader in the fluorescence mode with applying a filter for excitation at 560 nm (band width 10 nm) and for emission at 590 nm (band width 10 nm). Control treatments for growth inhibition with commercial compounds such as Methotrexate (MTREX) and Resveratrol (RES) were included on every plate. Some of the test compounds of the present invention were obtained and applied as their salts. According cases are indicated in the column “Specification” in Table 30 to Table 62 and by their sum formula in Table 63.
The assays were performed in duplicate or more replicates of independent single experiments each containing a six-fold replicate for every condition. For every individual plate, the measured fluorescence intensity values of the conditions with compound treatment were normalized against the corresponding equally weighted arithmetic mean of the fluorescence intensity values of the six DMSO treated control wells in order to obtain the relative values to a baseline level of 1.0.
Two independent outlier analyses were performed according to the methods by Peirce and Chauvenet (Ross, Journal of Engineering Technology 2003, 1-12). Outliers confirmed by at least one of the methods were excluded from the calculations but not more than one value out of six per compound within a single experiment. The weighted arithmetic mean (here abbreviated as AVEw) for each compound was calculated from the normalized values over all independent replicates of the single experiments comprising the six replicates each. The corresponding standard deviation for the weighted arithmetic mean was calculated according to the method described by Bronstein et al. (Bronstein, Semendjajew, Musiol, Muhlig, Taschenbuch der Mathematik, 5th edition 2001 (German), publisher: Verlag Harri Deutsch, Frankfurt am Main and Thun) and was combined with the Gauβ′ error propagation associated with the performed calculation for the normalization. The resulting standard deviation is herein referred to as “combined standard deviation”. […]

`Oc1ccc(C=Cc2cc(O)cc(O)c2)cc1` [RES, resveratrol, reference compound] was tested. Which activity at 20 µM (Homo sapiens, Table 30, compound at 20 μM, read-out: Activity Range (AVEw, weighted arithmetic mean of normalized fluorescence intensity, DMSO = 1.0)) did it give?
The activity at 20 µM was 40 ± 10%.

And the “Activity Range (AVEw, weighted arithmetic mean of normalized fluorescence intensity, DMSO = 1.0)” value (Table 31, compound at 20 μM)?
Its value is 0.4 ± 0.1.
